Experimental data as given in US20150071856A1, “ANTAGONISTIC PEPTIDES FOR FRIZZLED-1 AND FRIZZLED-2” (Universiteit Maastricht, priority 2013, published 2015).
Entries after “also recorded” stand apart in the source; their conditions may differ. Residues, ends and D or L forms follow the SMILES beside them.

Tests used:
[1] = tested on: C-FIT cells; experiment: Differentiation assay (α-SMA, fibroblast to myofibroblast) in C-FIT cells; assay type: cell-based, rat
Description: For this assay, we used the same C-FIT cells as for the migration assay to study a second component of wound healing, namely, differentiation of fibroblasts into myofibroblasts. When wound healing starts, cells called fibroblasts migrate into the scar. These cells have no contractile properties; however, they can differentiate into myofibroblasts, which can actively contract. To study which signals influence the transition from fibroblast into myofibroblasts, we treated the C-FIT cells and harvested them for mRNA isolation. Next, we tested them for the presence of specific markers for myofibroblasts by reverse transcription of the mRNA and subsequent quantitative PCR analysis, which are absent in fibroblasts. One of those markers is α-smooth muscle actin, which makes the cells contract.
(§1) RNA was isolated using the Trizol method (Invitrogen). For the RT-PCR, the RNA was transcribed to cDNA with Iscript™ cDNA synthesis kit (Bio-Rad, Hercules Calif., USA), Syber green (Eurogentec, Ghent, Belgium) was used for the detection of cDNA levels and cyclophilin served as the house keeping gene. In Supplementary methods panel 5, the primer sequences are shown.

[2] = tested on: infarct area; experiment: Histological, qPCR and Western blot analysis of the infarct area in mice; assay type: in vivo
Description: This was confirmed by histological analysis of the infarct area.
as §1
For Western blot, cells were homogenized in ice-cold Laemmli buffer and protein content was measured using the BCA protein assay (Pierce Biotechnology Inc., Rockford Ill., USA); proteins were denatured by boiling, separated on a 10% SDS-page gel, and transferred onto a Hybond C nitrocellulose membrane (Amersham Biosciences, Little Chalfont, United Kingdom). After blocking, membranes were incubated overnight at 4° C. with primary antibodies against β-catenin, α-SMA (both 1:2000, BD Biosciences, Franklin Lakes N.J., USA) or β-actin (1:2000 Sigma-Aldrich). Anti-mouse immunoglobulin G 1/5000 (Vector Labs Inc.) was used as the secondary antibody, and the membranes were developed using the Supersignal West Pico chemiluminescence kit (Pierce). Images of the blots were analyzed with image analysis software (Qwin Leica, Cambridge, United Kingdom).
One-half of the hearts of the mice was embedded in paraffin and cut in 4 μm sections. The paraffin sections were rehydrated and washed in PBS. One section was stained with AZAN, allowing an accurate determination of the infarct size. To visualize the myofibroblasts in the infarct area, the sections were incubated with an antibody directed against α-smooth muscle actin (Sigma-Aldrich), followed by incubation with the peroxidase-conjugated secondary antibody (Vector laboratories). Nuclei were visualized by hematoxylin. Photos were taken with a Leica (CTR500, 63×/0.85) camera and analyzed with the Quantimet program (QWin/QGo). An examiner blinded to the groups of the animals obtained all measurements. For the experiments with Rhodamine-labeled UM206, frozen sections (4 μm) of mouse kidney and small intestine were used.

[3] = tested on: C-FIT cells (cardiac fibroblasts immortalized with telomerase); experiment: Migration assay (wound/scratch assay) with C-FIT cells overexpressing Fzd-1 or -2; assay type: cell-based, rat
Description: For this assay, we used rat cardiac fibroblasts, which were immortalized with telomerase, the C-FIT cell line. This cell line was characterized previously and resembles features of primary cardiac fibroblasts. C-FIT cells were plated, treated when they were 70% confluent and a wound was made with a pipette tip at the moment of 100% confluence.
This assay was first tested with the natural ligand Wnt3a, in combination with frizzled-1 and -2 overexpression. […] Next step was to see whether the antagonist could counteract this. (See FIG. 4.)
Plate cells in 12-well plates
Transfection (see protocol)
Addition of conditioned medium
Make a scratch. This is time point zero.
Making pictures every six hours and analyzing the scratch width.
The overexpression of Fzd-1 and -2 in migrating (myo)fibroblasts during infarct healing was one of the first reports of activation of Wnt/Fzd signaling in cardiovascular remodeling (Blankesteijn 1997). To assess the functional relevance of Wnt/Fzd signaling on cardiac fibroblast proliferation, migration and differentiation, a cardiac fibroblast cell line immortalized with telomerase was used, as previously described (Janhunen 2009, Laeremans 2009).
Cells were plated on day 0, and cultured until 70% confluence before transfection or treatment. […] Scratch width was measured at this time point, and also after 6, 12, and 24 hours.

[4] = target: T1, frizzled-2 (rFzd-2) (Rattus norvegicus, UniProt Q08464); experiment: Activity assay: luciferase reporter in HEK superTOPflash cells transfected with frizzled-2; assay type: cell-based
T1 construct: expressed in transfected cells; host or cells: HEK293 superTOPflash (transient, Fugene6, pcDNA3.1/hygro)
T1 sequence (Q08464 29-570): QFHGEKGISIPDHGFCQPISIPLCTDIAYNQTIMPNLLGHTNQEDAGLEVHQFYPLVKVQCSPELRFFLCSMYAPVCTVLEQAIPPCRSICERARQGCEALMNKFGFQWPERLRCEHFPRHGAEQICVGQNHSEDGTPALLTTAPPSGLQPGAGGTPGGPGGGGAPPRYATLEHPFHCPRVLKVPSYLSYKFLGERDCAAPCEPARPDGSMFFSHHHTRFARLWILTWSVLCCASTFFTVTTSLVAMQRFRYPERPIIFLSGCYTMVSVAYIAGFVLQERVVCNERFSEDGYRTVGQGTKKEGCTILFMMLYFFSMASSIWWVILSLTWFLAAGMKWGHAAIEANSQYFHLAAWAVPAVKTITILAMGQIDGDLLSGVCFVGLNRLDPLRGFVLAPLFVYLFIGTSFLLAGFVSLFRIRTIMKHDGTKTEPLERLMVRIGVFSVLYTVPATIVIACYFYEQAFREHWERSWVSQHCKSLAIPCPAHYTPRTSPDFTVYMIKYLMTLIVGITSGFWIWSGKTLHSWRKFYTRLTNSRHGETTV
Description: Human embryonic kidney (HEK) cells were used for screening. These cells have a luciferase construct stably transfected into the genome (see FIG. 2A), such that when the frizzled receptor is activated and β-catenin is increased, the luciferase is activated by transcription and light can be measured.
The peptides were tested by transfecting the frizzled-1 or the frizzled-2 receptor and addition of UM206(S-S) to the cell culture. For testing antagonistic activity, UM206 was added and the natural ligand Wnt3a was added, which is a natural stimulus for the canonical pathway.
Day 2: Transfection 12-Well Plates • heat Fugene6 and DNA 15 minutes at RT • 2 ml serum-free medium in tube • add 3 μl fugene • add 2 μg DNA • incubate 30 minutes at RT • wash with PBS • add 50 μl transfectiemix • add 1 ml antibiotica-free medium
Day 3: Add Conditioned Medium or UM206
Day 4: Luciferase Activity Measurements • remove medium • wash with PBS • add 500 μl ⅕ lysisbuffer • shake for 60 minutes • centrifuge in tube • 20 μl lysaat and 50 μl luciferase in new tube for measurement • vortex • measure
Three areas of high homology that contained two cysteines are underlined (UM207), (UM208) and (UM206). In FIGS. 9B through 9D, the inhibitory effect of these three peptides on Wnt3a-induced luciferase activity in HEK293-superTOPflash is shown. […] Again, the peptides by themselves had no effect on the luciferase activity.
To determine the inhibitory constant of UM206-8, HEK293-superTOPflash cells were transfected with either rFzd-1 or -2 and incubated with Wnt3a (10^−9M) in the presence of increasing concentrations of either of the peptides (FIG. 15). For UM206, a biphasic inhibition curve was observed that was best fitted with a two-binding-state model.
The cell lines were cultured in 75 cm^2 culture flasks (Corning, Schiphol, the Netherlands) in Dulbeco's modified essential medium with L-glutamine (2 mM), 10% fetal calf serum (Invitrogen, Merelbeke, Belgium), and 1% gentamycin (Sigma-Aldrich, Zwijndrecht, The Netherlands). Before starting the experiment, the cell lines were treated with plasmocin 25 μg/ml (Invivogen, Toulose, France) and tested with a mycoalert mycoplasma detection kit (Lonza, Rockland Me., USA). Cells were transiently transfected with Fugene6 (Roche, Indianapolis Ind., USA) with plasmid DNA, pcDNA3.1/hygro (Invitrogen) with frizzled-1/2/4 or Wnts 3a-5a or with pcDNA3.0 (Invitrogen) containing the β-catenin or frizzled-5 sequence. After transfection, the cells were cultured for 24 hours in conditioned medium, collected from the cultured L-cells, L-cells with Wnt3a or 5a (Invitrogen). At the same moment the antagonist was added.

## CSCC[C@H](NC(=O)CNC(=O)[C@H](CCC(=O)O)NC(=O)[C@H](CO)NC(=O)[C@@H](NC(=O)[C@H](CCCCN)NC(=O)[C@H](CC(N)=O)NC(=O)[C@H](CS)NC(C)=O)[C@@H](C)O)C(=O)N[C@@H](CC(=O)O)C(=O)NCC(=O)N[C@@H](CS)C(=O)N[C@@H](CCC(=O)O)C(=O)N[C@@H](CC(C)C)C(N)=O [UM206, Ac-Cys-Asn-Lys-Thr-Ser-Glu-Gly-Met-Asp-Gly-Cys-Glu-Leu-NH2] (Ac-CNKTSEGMDGCEL-NH2)
[1]
  effect on Wnt3a/Wnt5a-induced differentiation, α-SMA levels: completely blocks this differentiation
[2]; 2 and 5 weeks after MI
  infarct area size versus saline: significantly smaller
  thickness of the infarct area versus saline: significantly thicker
[2]; five weeks post-MI
  myofibroblast numbers in the infarct area versus saline: significantly elevated number
[2]; five weeks treatment
  blood vessels in the infarct area versus saline: increased amount of blood vessels
  collagen levels in the infarct area versus saline: reduced collagen levels
[2]; five-week-old infarcts, qPCR and Western blotting
  α-SMA levels in infarcts versus saline: significantly higher α-SMA levels
[2]; two weeks post-MI
  myofibroblast numbers in the infarct area versus saline: more than four-fold higher; also recorded: four-fold more myofibroblasts
[3]
  effect of UM206 alone on cell migration: no effect on cell migration
[3]; UM206 1.10^−8 M, Fzd-1 or -2 overexpression
  counteraction of Wnt3a/Wnt5a-induced attenuation of migration: migration was reset to the migration speed of the control; also recorded: blocked completely; also recorded: block this effect completely
[4]
  selectivity frizzled-2 over frizzled-1: slightly more selective for frizzled-2 over frizzled-1
[4]; Wnt3a-induced luciferase activity, antagonists at 1.10^−9 M
  % of inhibition for Fzd-2: 75.06%
[4]; peptide 1.10^−8 M
  block of Wnt3a-induced luciferase activity, rFzd-2: blocked almost completely; also recorded: abolished the induction of luciferase activity almost completely
